Test results: US7615542B2, “Dioxolane thymine and combinations for use against 3TC/AZT resistant strains of HIV” (priority 2002, dated 2009)
pIC50: −log10 of the molar value.

How the values were obtained:
[1] = tested on: HIV-1 isolate 5705-72; experiment: Anti-HIV efficacy in PBMC, isolate 5705-72; type: cell-based; conditions: for pIC50: Human immunodeficiency virus 1, PBMC, isolate 5705-72 (post-treatment), read-out: Drug (IC50)
Protocol: (§1) The following Tables 2 and 3, set forth below, describe the HIV resistant strains genotypically (Table 2) and phenotypically (Table 3) which were used in the experiments to test activity.
(§2) Each of the three test compounds were tested for efficacy against the various strains of HIV-1. Anti-HIV efficacy was evaluated in PBMC, reverse transcriptase activity was tested in a microtiter plate-based reverse transciptase assay (Buckeit, et al., AIDS Research and Human Retroviruses, 7:295-302, 1991), MTS staining was used for determining cell viability.
(§3) The compounds were also evaluated in a parallel assay for cytotoxicity in uninfected PBM cells.

[2] = tested on: HIV-1 isolate 488-101; experiment: microbe, parasite or virus in culture; type: cell-based; conditions: for Phenotype for 488-101: resistance phenotype comparison, Table 5; for pIC50: Human immunodeficiency virus 1, PBMC, isolate 488-101 (post-treatment), read-out: Drug (IC50)
Protocol: as §1, §2, §3

[3] = tested on: HIV-1 isolate LAI M184V; experiment: Anti-HIV efficacy in PBMC, isolate LAI M184V; type: cell-based; conditions: for Phenotype for LAI M184V: resistance phenotype comparison, Table 5
Protocol: as §1, §2, §3

[4] = tested on: HIV-1 isolate G910-6; experiment: Anti-HIV efficacy in PBMC, isolate G910-6; type: cell-based; conditions: for Phenotype for G910-6: resistance phenotype comparison, Table 5; for pIC50: Human immunodeficiency virus 1, PBMC, isolate G910-6 (post-treatment), read-out: Drug (IC50)
Protocol: as §1, §2, §3

[5] = tested on: panel of HIV-1 3TC/AZT drug sensitive/resistant matched pair virus isolates; experiment: Standardized PBMC cell-based anti-HIV assay, matched pair panel; conditions: AZT and/or 3TC resistant isolates
Protocol: as §2, §3

[6] = tested on: mutations 65R, 74V, 184V, and 115F in the RT gene; conditions: mutants harboring 2 or 3 of these mutations; cited from earlier work
[7] = tested on: HIV-1 isolate 5705-0; experiment: Anti-HIV efficacy in PBMC, isolate 5705-0; type: cell-based; conditions: for pIC50: Human immunodeficiency virus 1, PBMC, isolate 5705-0 (pre-treatment), read-out: Drug (IC50)
Protocol: as §1
as §2, with “viability. […] Table 5 presents a resistance phenotype comparison for compounds of the present invention versus the compounds 3TC and AZT.” for “viability.”
as §3

[8] = tested on: HIV-1 isolate 488-0; experiment: Anti-HIV efficacy in PBMC, isolate 488-0; type: cell-based; conditions: for pIC50: Human immunodeficiency virus 1, PBMC, isolate 488-0 (pre-treatment), read-out: Drug (IC50)
Protocol: as §1
as §2, with “viability. […] Table 5 presents a resistance phenotype comparison for compounds of the present invention versus the compounds 3TC and AZT.” for “viability.”
as §3

[9] = tested on: HIV-1 isolate LAI; experiment: Anti-HIV efficacy in PBMC, isolate LAI; type: cell-based; conditions: for pIC50: Human immunodeficiency virus 1, PBMC, read-out: Drug (IC50)
Protocol: as §1
as §2, with “viability. […] Table 5 presents a resistance phenotype comparison for compounds of the present invention versus the compounds 3TC and AZT.” for “viability.”
as §3

[10] = tested on: HIV-1 isolate H112-2; experiment: Anti-HIV efficacy in PBMC, isolate H112-2; type: cell-based; conditions: for pIC50: Human immunodeficiency virus 1, PBMC, isolate H112-2 (pre-treatment), read-out: Drug (IC50)
Protocol: as §1
as §2, with “viability. […] Table 5 presents a resistance phenotype comparison for compounds of the present invention versus the compounds 3TC and AZT.” for “viability.”
as §3

Q: Which Resistance phenotype ([1]; resistance phenotype comparison, Table 5) does the source give for `Nc1nc(N)c2ncn(C3COC(CO)O3)c2n1` [DAPD, beta-D-9-(5-hydroxymethyl-dioxolanyl-2-yl)-2,4-diamino-purine] here?
A: Resistant (>5 fold resistance, Resistant)

Q: What about the “Phenotype for 488-101” value [2] of the same molecule?
A: Sensitive (<5 fold resistance, Sensitive)

Q: And the “Phenotype for LAI M184V” value [3]?
A: Sensitive (<5 fold resistance, Sensitive)

Q: And the “Phenotype for G910-6” value [4]?
A: Sensitive (<5 fold resistance, Sensitive)

Q: What about the “Cross-resistance / resistance profile” value [5] of the same molecule?
A: resistance profile similar to AZT

Q: With `Nc1nc(NC2CC2)c2ncn([C@H]3C=C[C@@H](CO)C3)c2n1` [abacavir, Abacavir] as the molecule, how does the “resistance to the drug” value [6] read?
A: approximately 10 fold

Q: For `Nc1nc2c(ncn2[C@H]2CO[C@@H](CO)O2)c(=O)[nH]1` [DXG, beta-D-9-(5-hydroxymethyl-dioxolanyl-2-yl)guanine], which “Phenotype for 488-101” value [2] is on record?
A: Sensitive (<5 fold resistance, Sensitive)

Q: And the “Phenotype for LAI M184V” value [3]?
A: Resistant (>5 fold resistance, Resistant)

Q: And the “Phenotype for G910-6” value [4]?
A: Sensitive (<5 fold resistance, Sensitive)

Q: And the “Cross-resistance / resistance profile” value [5]?
A: resistance profile similar to that of 3TC

Q: With `Nc1ccn([C@@H]2CS[C@H](CO)O2)c(=O)n1` [3TC, Lamivudine] as the molecule, how does the pIC50 [7] read?
A: 8.05 to 8.40

Q: What about the pIC50 [1] of the same molecule?
A: < 4.30

Q: What about the pIC50 [8] of the same molecule?
A: 7.33 to 7.52

Q: What about the pIC50 [2] of the same molecule?
A: 4.39

Q: And the “Phenotype for 488-101” value [2]?
A: Resistant (>5 fold resistance, Resistant)

Q: What about the pIC50 [9] of the same molecule?
A: 8.00

Q: And the pIC50 ([3]; Human immunodeficiency virus 1, PBMC, isolate LAI-M184V, read-out: Drug (IC50))?
A: < 4.30

Q: What about the pIC50 [10] of the same molecule?
A: 6.77

Q: And the pIC50 [4]?
A: 6.49

Q: What about the “Phenotype for G910-6” value [4] of the same molecule?
A: Sensitive (<5 fold resistance, Sensitive)

Q: With `Cc1cn([C@H]2C[C@H](N=[N+]=[N-])[C@@H](CO)O2)c(=O)[nH]c1=O` [AZT, 3′-Azido-3′-deoxythymidine] as the molecule, how does the pIC50 [7] read?
A: 8.10 to 8.52

Q: And the Phenotype ([7]; isolate 5705-0, Table 3)?
A: Sensitive

Q: And the pIC50 [1]?
A: 7.52

Q: And the pIC50 [8]?
A: 9.22 to 9.52

Q: And the Phenotype ([8]; isolate 488-0, Table 3)?
A: Sensitive

Q: And the pIC50 [2]?
A: 7.10

Q: And the Phenotype ([2]; isolate 488-101, Table 3)?
A: Resistant

Q: And the pIC50 [9]?
A: 7.70

Q: What about the Phenotype ([9]; Table 3) of the same molecule?
A: Sensitive

Q: And the Phenotype ([3]; isolate LAI-M184V, Table 3)?
A: Sensitive

Q: What about the “Phenotype for LAI M184V” value [3] of the same molecule?
A: Sensitive (<5 fold resistance, Sensitive)

Q: And the pIC50 [10]?
A: 8.00

Q: And the Phenotype ([10]; isolate H112-2, Table 3)?
A: Sensitive

Q: And the pIC50 [4]?
A: 6.21

Q: What about the Phenotype ([4]; isolate G910-6, Table 3) of the same molecule?
A: Resistant

Q: What about the “Phenotype for G910-6” value [4] of the same molecule?
A: Resistant (>5 fold resistance, Resistant)
